Key:
SHHF rats [1] = assay: Chronic treatment: glucose tolerance test (IVGTT) in SHHF rats; assay type: in vivo, rat; settings: 20 mg/kg/d, 12 weeks; glucose 0.5 g/kg i.v.; control 710±37
Experimental: At the end of treatment, the SHHF rats were anesthetized with sodium pentobarbital (50 mg/kg i.p.) after a fasting time of 18 h. The left femoral vein was catheterized to take blood samples for the different dosages. To perform the glucose tolerance test a solution of glucose (0.5 g/kg, i.v.) was administered and the plasma concentrations of glucose were determined after 3, 6, 10, 15, 30 and 45 minutes.
(§1) Male SHHF rats (spontaneously hypertensive, heart failure) aged 12 weeks were used for this study (Charles River breeding centre, L'Arbresle, France).
(§2) Compound 1 was administered in the drinking water for 12 weeks at a dose of 20 mg/kg/d (n=17). Water consumption was regularly measured to adjust the concentration of compound 1. Non-treated control SHHF rats had access to normal water (n=10).
A glucose solution of 0.5 g/kg was administered via intravenous route. The plasma concentration of glucose was evaluated using a glucometer before injection into animals that had fasted 18 h, and then 3, 6, 10, 15, 30 and 45 min after administration of the glucose (Accu Check Go, Roche Diagnostics, Meylan, France). Area under curve values (AUC) were then determined to compare the groups.

SHHF rats [2] = assay: Chronic treatment: body weight and food consumption in SHHF rats; assay type: in vivo, rat; settings: 20 mg/kg/d
Experimental: as §1, §2
Body weight, water and food intake were measured every day. After a treatment time of 12 weeks, blood samples were taken. Three days later, arterial pressure and heart rate were recorded and a glucose tolerance test was performed.

I1 receptor = I1 receptor (Homo sapiens, UniProt Q9Y2I1); assay: Specific binding assay of the I1 receptor on human platelets with [125I]LNP 911
Experimental: Binding assays were performed at 37° C. using [^125I]LNP 911 as radioligand following the general procedure described but adapted to washed whole platelets (Greney, H.; Urosevic, D.; Schann, S.; Dupuy, L.; Bruban, V.; Ehrhardt, J,-D.; Bousquet, P.; Dontenwill, M. [^125I]2-(2-Chloro-4-iodo-phenylamino)-5-methyl-pyrroline (LNP911), a High-Affinity Radioligand Selective for I1 Imidazoline Receptors. Mol. Pharmacol. 2002, 62, 181-191).
Incubation was initiated through the addition of 900 to 950 μl of platelet suspension at a concentration of 500000/μl in a final volume of 1 ml Tyrode albumin and was performed at 37° C. for 5 min (equilibrium conditions). The competitive assays were conducted using a single concentration of radioligand ([…], 200 000 cpm), in the presence of increasing concentrations of suitable non-labelled ligand. Non-specific binding was determined by the binding of [^125I]LNP 911 in the presence of 100 nM of non-labelled LNP 911 and represented about 10% of total radioactivity when […] of [^125I]LNP 911 were used.
The reaction was halted by rapid vacuum filtration through GF/C fibre glass filters followed by five rapid washings of the filters with 3 ml of ice-cold Tyrode ([…], pH 7.35). Radioactivity was measured using a gamma counter (Wallac 1410).
The competitive assays were analyzed by non-linear regression using the GraphPad programme.
Ki values were determined using the method described by Cheng and Prussof (Cheng, Y. C.; Prusoff, W. H. Relationship between the Inhibition Constant (Ki) and the Concentration of Inhibitor which causes 50 percent Inhibition (I50) of an Enzymatic Reaction. Biochem. Pharmacol. 1973, 22, 3099-3108).

SHHF rats [3] = assay: Chronic treatment: arterial pressure and heart rate in SHHF rats; assay type: in vivo, rat; settings: 20 mg/kg/d in drinking water, 12 weeks
Experimental: as §1
The animals were placed in a room with controlled temperature and light, had free access to tap water and were fed a standard diet (A04, SAFE, Augy, France). This study was conducted in agreement with institutional recommendations and the rules laid down by the European Community for the use of experimental animals (L358-86/609/EEC).
as §2
Body weight, water and food intake were measured every day. […] Three days later, arterial pressure and heart rate were recorded and a glucose tolerance test was performed.
The rats were anesthetized with pentobarbital 50 mg/kg, i.p. (Céa santé animale, Libourne, France) and tracheotomized. […] Arterial pressure was recorded after stabilization with a pressure transducer (Gould P23XL) and recorder (Gould Electronics BS 272, Longjumeau, France). Mean arterial pressure (MAP) was calculated as diastolic pressure plus one third of differential arterial pressure. Heart rate was also recorded from the pressure signal using a Gould Biotach amplifier (model 13-4615-66).

Sprague-Dawley rats = assay: Acute i.v. treatment: renal sympathetic nerve activity and hemodynamic parameters in anesthetized rats; assay type: in vivo, rat; settings: 10 mg/kg i.v.
Experimental: Male Sprague-Dawley rats (10 weeks; Laboratoires Charles River, L'Arbresle, France) were anesthetized with urethane (1.5 g/kg i.p., supplemented with 0.1 g/kg i.v. if necessary) and placed on a hot blanket to maintain rectal temperature at 37° C.
The left renal nerve was carefully isolated and a major branch of the nerve was placed on a bipolar platinum-iridium electrode insulated with silicone gel (604A and B; Wacker Chemie, Munich, Germany). Throughout the experiment the rat was ventilated by means of a tracheal cannula (7-8 ml/kg×72 cycles/min) with a mixture of oxygen and air (˜8%-20%).
Arterial pressure was measured by connecting the arterial catheter to a pressure transducer (TNF-R; Ohmeda, Bilthoven, Holland) coupled to an amplifier (model 13-4615-52; Gould, Cleveland, Ohio).
Renal sympathetic nerve activity (RSNA) was amplified (×50,000), the pass-band filtered (300-3000 Hz; Model P-511J; Grass, Quincy, Mass.) and rectified with a home-built analogue rectifier including a low frequency filter with a cut-off frequency of 150 Hz.
The 2 parameters were continuously recorded using a computer equipped with an analogue-digital converter (model AT-MIO-16; National Instruments, Austin, Tex.) and LabVIEW 5.1 software (National Instruments).
Arterial pressure and RSNA were recorded before (baseline) and after administering compound 1 (10 mg/kg, i.v.). At the end of the recording session, chlorisondamine, a ganglionic blocker, was administered (2.5 mg/kg, i.v.) to evaluate the level of background noise which was then subtracted from all RSNA data for subsequent analyses. At the end of the experiment, the rats were euthanized with an intravenous overdose of sodium pentobarbital.

I1 receptor, sequence (Q9Y2I1 2-1504 limits assumed): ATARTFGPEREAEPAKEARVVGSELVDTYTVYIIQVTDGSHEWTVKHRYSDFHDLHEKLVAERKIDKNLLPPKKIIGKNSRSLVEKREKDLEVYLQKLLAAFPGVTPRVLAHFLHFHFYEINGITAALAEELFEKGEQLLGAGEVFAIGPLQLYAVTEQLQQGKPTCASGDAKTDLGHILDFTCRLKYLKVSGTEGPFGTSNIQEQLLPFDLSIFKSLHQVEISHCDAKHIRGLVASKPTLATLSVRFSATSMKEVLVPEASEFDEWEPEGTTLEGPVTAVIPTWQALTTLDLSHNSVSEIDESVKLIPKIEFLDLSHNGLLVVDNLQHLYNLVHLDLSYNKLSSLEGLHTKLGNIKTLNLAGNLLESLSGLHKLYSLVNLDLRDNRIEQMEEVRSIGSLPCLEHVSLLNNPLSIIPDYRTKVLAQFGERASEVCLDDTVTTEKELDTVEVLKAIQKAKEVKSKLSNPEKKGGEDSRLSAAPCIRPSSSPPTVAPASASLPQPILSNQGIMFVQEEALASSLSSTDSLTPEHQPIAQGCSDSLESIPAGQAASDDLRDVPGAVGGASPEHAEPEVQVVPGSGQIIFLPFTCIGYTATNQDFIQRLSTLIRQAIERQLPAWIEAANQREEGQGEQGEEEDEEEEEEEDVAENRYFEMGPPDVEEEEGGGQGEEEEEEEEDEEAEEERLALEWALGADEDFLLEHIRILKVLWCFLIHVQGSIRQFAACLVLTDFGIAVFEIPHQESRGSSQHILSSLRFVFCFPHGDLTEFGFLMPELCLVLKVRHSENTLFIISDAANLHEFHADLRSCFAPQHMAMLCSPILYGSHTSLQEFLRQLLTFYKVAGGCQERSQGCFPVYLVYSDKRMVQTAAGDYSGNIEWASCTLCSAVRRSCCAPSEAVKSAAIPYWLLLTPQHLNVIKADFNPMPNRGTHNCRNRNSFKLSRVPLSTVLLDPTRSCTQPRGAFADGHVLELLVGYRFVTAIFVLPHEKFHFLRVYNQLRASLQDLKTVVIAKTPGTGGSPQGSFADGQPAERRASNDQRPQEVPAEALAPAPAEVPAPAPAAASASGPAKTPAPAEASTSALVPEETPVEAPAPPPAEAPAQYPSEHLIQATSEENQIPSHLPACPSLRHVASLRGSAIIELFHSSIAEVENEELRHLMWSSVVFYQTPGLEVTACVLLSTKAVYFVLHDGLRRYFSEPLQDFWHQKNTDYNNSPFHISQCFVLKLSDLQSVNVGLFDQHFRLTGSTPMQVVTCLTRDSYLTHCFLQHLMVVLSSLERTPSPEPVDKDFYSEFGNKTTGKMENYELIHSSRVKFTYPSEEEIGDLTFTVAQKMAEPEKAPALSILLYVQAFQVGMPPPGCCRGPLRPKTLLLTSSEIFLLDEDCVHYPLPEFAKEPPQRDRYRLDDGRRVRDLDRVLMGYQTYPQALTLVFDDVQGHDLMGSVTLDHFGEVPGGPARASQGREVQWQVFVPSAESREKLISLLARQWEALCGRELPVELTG

With `Cc1c(Cl)cccc1NC1=NCC(C)C1.Cl` (stereo not drawn) [Compound 1, (3-Chloro-2-methyl-phenyl)-(4-methyl-4,5-dihydro-3H-pyrrol-2-yl)-amine hydrochloride] the “AUC after the glucose tolerance test” value (SHHF rats [1]) was 556 ± 20 mmol·min/L, the body weight (SHHF rats [2]; after 9 weeks until end of treatment) was “lower body weight than the controls” and the food consumption (SHHF rats [2]; after one week's treatment) was “below that of the controls”. It also gave a Ki (I1 receptor) of 8.1 nM, an arterial pressure (SHHF rats [3]; control 176±6) of 153±7 mmHg and a heart rate (SHHF rats [3]; control 361±8) of 367±6 bpm. The “duration of the reduction in renal sympathetic activity, arterial pressure and heart rate” value (Sprague-Dawley rats) was “more than one hour”, the “reduction in renal sympathetic activity” value (Sprague-Dawley rats; urethane-anesthetized rats) was 50% and the “diastolic arterial pressure (DAP)” value (Sprague-Dawley rats; vs. 83.2±4 baseline) was 58.6±3.4 mmHg. For the same compound, the “mean arterial pressure (MAP)” value (Sprague-Dawley rats; vs. 108.±3.4 baseline) was 77.4±3.6 mmHg, the “systolic arterial pressure (SAP)” value (Sprague-Dawley rats; vs. 141.7±2.3 baseline) was 105.3±3 mmHg and the heart rate (Sprague-Dawley rats; vs. 331.4±14 baseline) was 288.4±10.3 bpm.

Source: patent US9303019B2, “Amino-pyrroline derivatives, and use thereof in the prevention and/or treatment of metabolic syndrome” (UNIVERSITE DE STRASBOURG, priority 2012, dated 2016)
